Results from PubChem BioAssay AID2060887 (Molecular Pharmacology Branch, DTP, NCI, 2025).
pIC50: −log10 of the molar value.

System: 782815-120-R-J1-PDC complex spheroid viability
Assay: Anticancer human tumor 782815-120-R-J1-PDC patient-derived colon adenocarcinoma cell line growth inhibition [RAS]
Settings: for pIC50: curve of first compound; for viability, T/C: stronger effect = lower value
How it was run: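 Tumour cells grown as complex spheroids with HUVEC endothelial cells and mesenchymal stem cells, treated with RAS pathway inhibitor combinations. Each agent spans half-log steps from near clinical Cmax, or 10 microM where Cmax is unknown.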
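Further: spheroids exposed to compounds for 7 days before reading.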
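Wherever viability, T/C is given: 100% = DMSO vehicle control viability.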

Q: What does the source list for `C=CC(=O)N1CCN(c2nc(OCC3CCCN3C)nc3c(F)c(-c4nc(N)cc(C)c4C(F)(F)F)c(Cl)cc23)C(C)C1` (centres undefined) + CCn1c(-c2cccnc2C(C)OC)c2c3cc(ccc31)N1CCOC(CC(NC(=O)C(C(C)C)N(C)C(=O)C3(F)CCN(C(=O)C#CC(C)(C)N(C)C)CC3)C(=O)N3CCCC(N3)C(=O)OCC(C)(C)C2)C1?
A: pIC50 (second compound 0.000949 µM): < 6.00; pIC50 (second compound 0.003 µM): < 6.00; pIC50 (second compound 0.00949 µM): < 6.00; pIC50 (second compound 0.03 µM): < 6.00; pIC50 (second compound 0.0949 µM): < 6.00; pIC50 (second compound 0.3 µM): < 6.00; viability, T/C (second compound 0.000949 µM, first compound 0.00316 µM): 95.1%; viability, T/C (second compound 0.000949 µM, first compound 0.01 µM): 96%; viability, T/C (second compound 0.000949 µM, first compound 0.0316 µM): 101%; viability, T/C (second compound 0.000949 µM, first compound 0.1 µM): 83.2%; viability, T/C (second compound 0.000949 µM, first compound 0.316 µM): 94.4%; viability, T/C (second compound 0.000949 µM, first compound 1 µM): 94.5%; viability, T/C (second compound 0.003 µM, first compound 0.00316 µM): 91.3%; viability, T/C (second compound 0.003 µM, first compound 0.01 µM): 97%; viability, T/C (second compound 0.003 µM, first compound 0.0316 µM): 101%; viability, T/C (second compound 0.003 µM, first compound 0.1 µM): 94.8%; viability, T/C (second compound 0.003 µM, first compound 0.316 µM): 93.3%; viability, T/C (second compound 0.003 µM, first compound 1 µM): 94.7%; viability, T/C (second compound 0.00949 µM, first compound 0.00316 µM): 87.2%; viability, T/C (second compound 0.00949 µM, first compound 0.01 µM): 97.2%; viability, T/C (second compound 0.00949 µM, first compound 0.0316 µM): 89.4%; viability, T/C (second compound 0.00949 µM, first compound 0.1 µM): 95.6%; viability, T/C (second compound 0.00949 µM, first compound 0.316 µM): 92.9%; viability, T/C (second compound 0.00949 µM, first compound 1 µM): 99.1%; viability, T/C (second compound 0.03 µM, first compound 0.00316 µM): 86.8%; viability, T/C (second compound 0.03 µM, first compound 0.01 µM): 95%; viability, T/C (second compound 0.03 µM, first compound 0.0316 µM): 87%; viability, T/C (second compound 0.03 µM, first compound 0.1 µM): 99.4%; viability, T/C (second compound 0.03 µM, first compound 0.316 µM): 94.4%; viability, T/C (second compound 0.03 µM, first compound 1 µM): 92.1%; viability, T/C (second compound 0.0949 µM, first compound 0.00316 µM): 86.8%; viability, T/C (second compound 0.0949 µM, first compound 0.01 µM): 105%; viability, T/C (second compound 0.0949 µM, first compound 0.0316 µM): 99%; viability, T/C (second compound 0.0949 µM, first compound 0.1 µM): 101%; viability, T/C (second compound 0.0949 µM, first compound 0.316 µM): 101%; viability, T/C (second compound 0.0949 µM, first compound 1 µM): 96.4%; viability, T/C (second compound 0.3 µM, first compound 0.00316 µM): 93.4%; viability, T/C (second compound 0.3 µM, first compound 0.01 µM): 84.3%; viability, T/C (second compound 0.3 µM, first compound 0.0316 µM): 97.5%; viability, T/C (second compound 0.3 µM, first compound 0.1 µM): 91.2%; viability, T/C (second compound 0.3 µM, first compound 0.316 µM): 89.3%; viability, T/C (second compound 0.3 µM, first compound 1 µM): 87.4%

Q: What does the source list for `CC1(C)CCC(Nc2ncc(C(F)(F)F)c(-c3c[nH]c4c(P(C)(C)=O)c(C#N)ccc34)n2)CN1` (centres undefined) + CCn1c(-c2cccnc2C(C)OC)c2c3cc(ccc31)N1CCOC(CC(NC(=O)C(C(C)C)N(C)C(=O)C3(F)CCN(C(=O)C#CC(C)(C)N(C)C)CC3)C(=O)N3CCCC(N3)C(=O)OCC(C)(C)C2)C1?
A: pIC50 (second compound 0.000949 µM): 7.37; pIC50 (second compound 0.003 µM): 7.36; pIC50 (second compound 0.00949 µM): 7.17; pIC50 (second compound 0.03 µM): 7.25; pIC50 (second compound 0.0949 µM): 7.20; pIC50 (second compound 0.3 µM): 7.52; viability, T/C (second compound 0.000949 µM, first compound 0.000949 µM): 105%; viability, T/C (second compound 0.000949 µM, first compound 0.003 µM): 93.1%; viability, T/C (second compound 0.000949 µM, first compound 0.00949 µM): 68.5%; viability, T/C (second compound 0.000949 µM, first compound 0.03 µM): 51%; viability, T/C (second compound 0.000949 µM, first compound 0.0949 µM): 49.8%; viability, T/C (second compound 0.000949 µM, first compound 0.3 µM): 41.2%; viability, T/C (second compound 0.003 µM, first compound 0.000949 µM): 91.5%; viability, T/C (second compound 0.003 µM, first compound 0.003 µM): 89.2%; viability, T/C (second compound 0.003 µM, first compound 0.00949 µM): 81.8%; viability, T/C (second compound 0.003 µM, first compound 0.03 µM): 52.1%; viability, T/C (second compound 0.003 µM, first compound 0.0949 µM): 45.8%; viability, T/C (second compound 0.003 µM, first compound 0.3 µM): 44.3%; viability, T/C (second compound 0.00949 µM, first compound 0.000949 µM): 90.5%; viability, T/C (second compound 0.00949 µM, first compound 0.003 µM): 93.7%; viability, T/C (second compound 0.00949 µM, first compound 0.00949 µM): 83.2%; viability, T/C (second compound 0.00949 µM, first compound 0.03 µM): 54.1%; viability, T/C (second compound 0.00949 µM, first compound 0.0949 µM): 51.6%; viability, T/C (second compound 0.00949 µM, first compound 0.3 µM): 44.6%; viability, T/C (second compound 0.03 µM, first compound 0.000949 µM): 86.1%; viability, T/C (second compound 0.03 µM, first compound 0.003 µM): 88.8%; viability, T/C (second compound 0.03 µM, first compound 0.00949 µM): 78.4%; viability, T/C (second compound 0.03 µM, first compound 0.03 µM): 54.9%; viability, T/C (second compound 0.03 µM, first compound 0.0949 µM): 44.1%; viability, T/C (second compound 0.03 µM, first compound 0.3 µM): 47.6%; viability, T/C (second compound 0.0949 µM, first compound 0.000949 µM): 107%; viability, T/C (second compound 0.0949 µM, first compound 0.003 µM): 83.6%; viability, T/C (second compound 0.0949 µM, first compound 0.00949 µM): 70.3%; viability, T/C (second compound 0.0949 µM, first compound 0.03 µM): 56.8%; viability, T/C (second compound 0.0949 µM, first compound 0.0949 µM): 45.5%; viability, T/C (second compound 0.0949 µM, first compound 0.3 µM): 39.9%; viability, T/C (second compound 0.3 µM, first compound 0.000949 µM): 83.9%; viability, T/C (second compound 0.3 µM, first compound 0.003 µM): 86.6%; viability, T/C (second compound 0.3 µM, first compound 0.00949 µM): 65%; viability, T/C (second compound 0.3 µM, first compound 0.03 µM): 52.2%; viability, T/C (second compound 0.3 µM, first compound 0.0949 µM): 39.4%; viability, T/C (second compound 0.3 µM, first compound 0.3 µM): 36.3%
